Assay results from article PMC9077246, “Novel spirocyclic tranylcypromine derivatives as lysine-specific demethylase 1 (LSD1) inhibitors” (RSC Advances, 2018).
Structures can show the parent of a compound that is named as a salt.

Key:
[1] = biological target: T1, MAO-A (Homo sapiens, UniProt P21397); assay: biochemical; details: MAO-A, IC50, Table 1; mean ± SEM, eight-point experiments, three independent experiments
T1 sequence (P21397 1-527): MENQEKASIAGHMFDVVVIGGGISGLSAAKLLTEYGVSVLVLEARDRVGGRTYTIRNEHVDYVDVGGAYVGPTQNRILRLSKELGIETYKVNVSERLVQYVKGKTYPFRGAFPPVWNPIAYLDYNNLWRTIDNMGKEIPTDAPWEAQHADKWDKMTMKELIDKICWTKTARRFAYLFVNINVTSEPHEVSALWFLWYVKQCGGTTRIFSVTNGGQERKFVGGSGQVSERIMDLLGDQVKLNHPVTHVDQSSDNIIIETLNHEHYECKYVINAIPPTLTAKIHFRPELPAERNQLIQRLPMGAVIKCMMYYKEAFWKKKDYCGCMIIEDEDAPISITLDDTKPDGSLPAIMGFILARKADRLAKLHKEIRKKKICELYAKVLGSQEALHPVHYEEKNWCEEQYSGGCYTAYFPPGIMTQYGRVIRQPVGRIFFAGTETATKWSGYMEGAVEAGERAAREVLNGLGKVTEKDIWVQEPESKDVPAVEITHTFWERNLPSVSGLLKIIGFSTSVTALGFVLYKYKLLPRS
Protocol: (§1) MAO-A and MAO-B enzymes were purchased from Sigma-Aldrich and the inhibition assay was tested with Promega MAO-Glo™ Assay kit according to the manufacturer's protocol. The luminescent signals were detected using Envision (PerkinElmer). The test was carried out in triplicate. And the IC50 data was calculated using the software GraphPad Prism 5, and chosen the equation “sigmoidal dose–response (variable slope)” for curve fitting.

[2] = biological target: T2, MAO-B (Homo sapiens, UniProt P27338); assay: biochemical; details: MAO-B, IC50, Table 1; mean ± SEM, eight-point experiments, three independent experiments
T2 sequence (P27338 1-520): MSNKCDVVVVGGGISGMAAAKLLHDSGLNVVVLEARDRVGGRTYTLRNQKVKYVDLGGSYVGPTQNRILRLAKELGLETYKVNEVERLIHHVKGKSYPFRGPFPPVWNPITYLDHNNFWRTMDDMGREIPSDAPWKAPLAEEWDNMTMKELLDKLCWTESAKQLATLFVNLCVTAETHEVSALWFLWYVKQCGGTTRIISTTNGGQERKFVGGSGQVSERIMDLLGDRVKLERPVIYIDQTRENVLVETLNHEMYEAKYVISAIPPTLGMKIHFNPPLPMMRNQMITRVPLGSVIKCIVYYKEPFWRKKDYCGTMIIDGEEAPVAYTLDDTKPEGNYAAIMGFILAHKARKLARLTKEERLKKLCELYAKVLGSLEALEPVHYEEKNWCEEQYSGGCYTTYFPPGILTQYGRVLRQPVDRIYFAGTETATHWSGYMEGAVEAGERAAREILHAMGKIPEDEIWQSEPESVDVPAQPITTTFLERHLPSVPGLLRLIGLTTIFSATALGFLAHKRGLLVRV
Protocol: as §1

[3] = biological target: T3, Recombinant human LSD1 (172–852 aa) (Homo sapiens, UniProt O60341); details: for fold reduction in LSD1 inhibitory potency vs 28a, 28b: 29a, 29b vs 28a; for fold more potent at LSD1 than 8a and 8b, respectively: 21a vs 8a, 21b vs 8b; for LSD1 IC50 level in words: potency range in words; for fold reduction in LSD1 inhibitory potency vs 23a, 23b: 24a, 24b vs 23a
Protocol: (§2) LSD1 or LSD2 enzyme inhibition assay was performed with Lance Ultra LSD1 Histone H3-Lysine 4 Demethylase Assay kit (Perkin Elmer) according to the manufacturer's protocol. […] The test was carried out in triplicate. And the IC50 data was calculated using the software GraphPad Prism 5, and chosen the equation “sigmoidal dose–response (variable slope)” for curve fitting.

[4] = biological target: T3, Recombinant human LSD1 (172–852 aa); assay: biochemical
Protocol: as §2

SMILES | IC50 [1] [µM] | IC50 [2] [µM] | IC50 [4] [µM] | further results
COc1ccc(CN[C@@H]2CC23CCc2ccccc23)c(Cl)c1OC (stereo in doubt) [Compound 20a, (2R)-N-(2-Chloro-3,4-dimethoxybenzyl)-2′,3′-dihydrospiro[cyclopropane-1,1′-inden]-2-amine] | 1.4 ± 0.1 | 20 ± 1 |  | 
Cl.N[C@H]1CC12CCc1cc(-c3ccc(F)cc3)ccc12 (stereo in doubt) [Compound 29b, (2S)-5′-(4-Fluorophenyl)-2′,3′-dihydrospiro[cyclopropane-1,1′-inden]-2-amine hydrochloride] |  |  | 6 ± 0.8 | fold reduction in LSD1 inhibitory potency vs 28a, 28b [3]: approximately 3 fold
COc1ncccc1CN[C@@H]1CC12CCc1ccccc12 (stereo in doubt) [Compound 22a, (2R)-N-((2-Methoxypyridin-3-yl)methyl)-2′,3′-dihydrospiro[cyclopropane-1,1′-inden]-2-amine] | > 100 | 47 ± 5 | 0.032 ± 0.006 | fold less potent at LSD1 than the cis-isomer ([3]; 22a vs 22b): 3 fold
c1cncc(CN[C@@H]2CC23CCc2ccccc23)c1 (mixture of isomers) [Compound 21a, (2R)-N-(Pyridin-3-ylmethyl)-2′,3′-dihydrospiro[cyclopropane-1,1′-inden]-2-amine] | 10.8 ± 1.1 | 15 ± 1 | 0.017 ± 0.003 | fold more potent at LSD1 than 8a and 8b, respectively [3]: 10 fold
Fc1ccccc1CN[C@@H]1CC12CCc1ccccc12 (mixture of isomers) [Compound 15a, (2R)-N-(2-Fluorobenzyl)-2′,3′-dihydrospiro[cyclopropane-1,1′-inden]-2-amine] | 4.8 ± 0.5 | 9.8 ± 2.3 |  | 
COc1ccc(Br)cc1CN[C@@H]1CC12CCc1ccccc12 (stereo in doubt) [Compound 16a, (2R)-N-(5-Bromo-2-methoxybenzyl)-2′,3′-dihydrospiro[cyclopropane-1,1′-inden]-2-amine] | 3.7 ± 0.8 | 1.2 ± 0.2 |  | 
Cl.N[C@@H]1CC12CCc1cc(-c3ccc(F)cc3)ccc12 (stereo in doubt) [Compound 29a, (2R)-5′-(4-Fluorophenyl)-2′,3′-dihydrospiro[cyclopropane-1,1′-inden]-2-amine hydrochloride] |  |  | 0.3 ± 0.01 | fold reduction in LSD1 inhibitory potency vs 28a, 28b [3]: approximately 3 fold
c1cncc(CN[C@H]2CC23CCc2ccccc23)c1 (mixture of isomers) [Compound 21b, (2S)-N-(Pyridin-3-ylmethyl)-2′,3′-dihydrospiro[cyclopropane-1,1′-inden]-2-amine] | 6 ± 1.1 | 28 ± 6 | 0.02 ± 0.003 | fold more potent at LSD1 than 8a and 8b, respectively [3]: 39 fold
COc1ccc(CNC2CC23CCc2ccccc23)cc1OC [Compound 19a, (2R)-N-(3,4-Fimethoxybenzyl)-2′,3′-dihydrospiro[cyclopropane-1,1′-inden]-2-amine] | 11.7 ± 2.4 | 15 ± 2 |  | 
COc1ccc(F)cc1CN[C@@H]1CC12CCc1cc(-c3ccccc3)ccc12 (stereo in doubt) [Compound 30a, (2R)-N-(5-Fluoro-2-methoxybenzyl)-5′-phenyl-2′,3′-dihydrospiro[cyclopropane-1,1′-inden]-2-amine] |  |  | 1.7 ± 0.1 | LSD1 IC50 level in words [3]: single digit micromolar range
O=C(CN[C@@H]1CC12CCc1ccccc12)N1CCOCC1 (stereo in doubt) [Compound 25a, 2-(((2R)-2′,3′-Dihydrospiro[cyclopropane-1,1′-inden]-2-yl)amino)-1-morpholinoethan-1-one hydrochloride] |  |  | 1.4 ± 0.1 | 
COc1ccc(CN[C@H]2CC23CCc2ccccc23)c(Cl)c1OC (stereo in doubt) [Compound 20b, (2S)-N-(2-Chloro-3,4-dimethoxybenzyl)-2′,3′-dihydrospiro[cyclopropane-1,1′-inden]-2-amine] | 5 ± 1.8 | 7 ± 0.7 |  | 
Fc1cccnc1CN[C@H]1CC12CCc1ccccc12 (stereo in doubt) [Compound 24b, (2S)-N-((3-Fluoropyridin-2-yl)methyl)-2′,3′-dihydrospiro[cyclopropane-1,1′-inden]-2-amine] |  |  | 0.47 ± 0.02 | fold reduction in LSD1 inhibitory potency vs 23a, 23b [3]: ≥ 4 fold
COc1ccc(CN[C@@H]2CC23CCc2cc(-c4ccccc4)ccc23)c(Cl)c1OC (stereo in doubt) [Compound 31a, (2R)-N-(2-Chloro-3,4-dimethoxybenzyl)-5′-phenyl-2′,3′-dihydrospiro[cyclopropane-1,1′-inden]-2-amine] |  |  | 8.9 ± 1.2 | LSD1 IC50 level in words [3]: single digit micromolar range
Fc1cccnc1CN[C@@H]1CC12CCc1ccccc12 (stereo in doubt) [Compound 24a, (2R)-N-((3-Fluoropyridin-2-yl)methyl)-2′,3′-dihydrospiro[cyclopropane-1,1′-inden]-2-amine] |  |  | 0.25 ± 0.01 | fold reduction in LSD1 inhibitory potency vs 23a, 23b [3]: ≥ 4 fold
COc1ccc(Br)cc1CN[C@H]1CC12CCc1ccccc12 (stereo in doubt) [Compound 16b, (2S)-N-(5-Bromo-2-methoxybenzyl)-2′,3′-dihydrospiro[cyclopropane-1,1′-inden]-2-amine] | 0.39 ± 0.19 | 7.7 ± 3.8 |  | 
Fc1ccccc1CN[C@H]1CC12CCc1ccccc12 (stereo in doubt) [Compound 15b, (2S)-N-(2-Fluorobenzyl)-2′,3′-dihydrospiro[cyclopropane-1,1′-inden]-2-amine] | 2.5 ± 0.1 | 32 ± 3 |  | 
c1ccc(CN[C@@H]2CC23CCc2ccccc23)cc1 (mixture of isomers) [Compound 13a, (2R)-N-Benzyl-2′,3′-dihydrospiro[cyclopropane-1,1′-inden]-2-amine] |  |  | 3.3 ± 0.6 | 
COc1ccc(F)cc1CN[C@@H]1CC12CCc1cc(-c3ccc(F)cc3)ccc12 (stereo in doubt) [Compound 32a, (2R)-N-(5-Fluoro-2-methoxybenzyl)-5′-(4-fluorophenyl)-2′,3′-dihydrospiro[cyclopropane-1,1′-inden]-2-amine] |  |  | 2.6 ± 0.5 | LSD1 IC50 level in words [3]: single digit micromolar range
COc1ccccc1CN[C@H]1CC12CCc1ccccc12 (stereo in doubt) [Compound 14b, (2S)-N-(2-Methoxybenzyl)-2′,3′-dihydrospiro[cyclopropane-1,1′-inden]-2-amine] | 1.7 ± 0.3 | 70 ± 35 |  | 
COc1ccc(CNC2CC23CCc2ccccc23)cc1OC [Compound 19b, (2S)-N-(3,4-Fimethoxybenzyl)-2′,3′-dihydrospiro[cyclopropane-1,1′-inden]-2-amine] | 3.1 ± 0.2 | 27 ± 4 |  | 
N[C@H]1CC12CCc1cc(-c3ccccc3)ccc12 (stereo in doubt) [Compound 28b, (2S)-5′-Phenyl-2′,3′-dihydrospiro[cyclopropane-1,1′-inden]-2-amine hydrochloride] |  |  | 2.7 ± 0.2 | 
NC1CCC(N[C@@H]2C[C@H]2c2ccccc2)CC1 (stereo partly drawn) [Compound 6, N1-[(1R, 2S)-2-phenylcyclopropyl]cyclohexane-1,4-diamine dihydrochloride, reference compound] | > 100 |  |  | 
COc1ncccc1CN[C@H]1CC12CCc1ccccc12 (stereo in doubt) [Compound 22b, (2S)-N-((2-Methoxypyridin-3-yl)methyl)-2′,3′-dihydrospiro[cyclopropane-1,1′-inden]-2-amine] | > 100 | 68 ± 8 | 0.01 ± 0.005 | 
COc1ccccc1CN[C@@H]1CC12CCc1ccccc12 (stereo in doubt) [Compound 14a, (2R)-N-(2-Methoxybenzyl)-2′,3′-dihydrospiro[cyclopropane-1,1′-inden]-2-amine] | 5.9 ± 1.1 | 12 ± 1 |  | 
O=C(CN[C@H]1CC12CCc1ccccc12)N1CCOCC1 (stereo in doubt) [Compound 25b, 2-(((2S)-2′,3′-Dihydrospiro[cyclopropane-1,1′-inden]-2-yl)amino)-1-morpholinoethan-1-one hydrochloride] |  |  | 22 ± 4 | 
COc1ccc(F)cc1CN[C@H]1CC12CCc1cc(-c3ccccc3)ccc12 (stereo in doubt) [Compound 30b, (2S)-N-(5-Fluoro-2-methoxybenzyl)-5′-phenyl-2′,3′-dihydrospiro[cyclopropane-1,1′-inden]-2-amine] |  |  | 4.4 ± 0.3 | LSD1 IC50 level in words [3]: single digit micromolar range
